Among the data in publication PMC11324870, “Branched-chain amino acid transaminase 1 confers EGFR-TKI resistance through epigenetic glycolytic activation” (Signal Transduction and Targeted Therapy, 2024) are IC50 values, retold here.

Molecules are shown by their SMILES. pIC50: −log10 of the molar value.

The target in this experiment is T1, BCAT1 (branched-chain amino acid transaminase 1) (Homo sapiens, UniProt P54687).
T1 construct: recombinant human BCAT1 Protein (Sino Biological, #ME16FE2265)
T1 sequence (P54687 1-386): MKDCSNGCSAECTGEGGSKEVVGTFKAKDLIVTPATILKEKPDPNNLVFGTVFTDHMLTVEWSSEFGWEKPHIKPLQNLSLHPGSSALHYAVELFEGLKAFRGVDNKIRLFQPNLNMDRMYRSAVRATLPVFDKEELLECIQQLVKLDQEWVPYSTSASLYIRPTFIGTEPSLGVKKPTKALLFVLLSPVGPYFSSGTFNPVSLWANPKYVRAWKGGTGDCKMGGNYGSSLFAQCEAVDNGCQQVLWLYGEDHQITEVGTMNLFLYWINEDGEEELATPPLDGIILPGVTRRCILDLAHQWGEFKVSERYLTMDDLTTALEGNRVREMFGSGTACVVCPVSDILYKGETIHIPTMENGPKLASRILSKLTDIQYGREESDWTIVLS
Kind of experiment: coupled fluorescence (resazurin) enzyme activity assay with purified recombinant BCAT1; also CETSA in […] cells. It is filed as biochemical.

Usually pIC50 stands for −log10 of the IC50, conventionally taken in molar units. Consider `NCC1(CC(=O)O)CC2CCC1C2` (racemic) [WQQ-345], for which the pIC50 is 1.97.
